# Source: patent publication US3960877A, “N-monosubstituted-2,3-pyridinedicarboxamides, and related compounds” (priority 1974, dated 1976)
# How the values were obtained:
# Assay type in all cases: in vivo
# [1] = test system: Alfalfa; test: Preemergence herbicidal activity, % control of plant growth; details: Medicago sativa, pre-emergence, 504 h, 16 lb/acre, about 3 weeks
# Source text: (§1) By "preemergence" is meant that the compound is applied to the soil prior to emergence of the weed species sought to be controlled. This term, as used herein, also means the application of the herbicidal compounds falling within the scope of this disclosure to areas wherein useful or desirable plants are either growing or have been sown, but where the undesirable plants sought to be controlled have not as yet emerged.
# (§2) In using the compound, seeds of the types of plants set forth in Table II were sown in fresh soil. In the preemergence test the soil was sprayed with a solution of the test compound immediately after the seeds were planted, and before any noticeable growth developed. The solution was about a 2 percent by weight solution of the compound in acetone and/or alcohol. The compound was applied at the rate of 16 pounds per acre of soil surface.
# (§3) Approximately 3 weeks after spray application, the herbicidal activity of the compound was determined by visual observation of the treated area in comparison with untreated control areas. These observations are reported below in Table II wherein the average activity rating is reported as the percent control of plant growth.
# (§4) *Preemergence test: compound applied at rate of 16 lb/acre
# [2] = test system: Barnyard Grass; test: as above; details: Echinochloa crus-galli, pre-emergence, 504 h; barnyard grass; 16 lb/acre; about 3 weeks
# Source text: as §1, §2, §3, §4
# [3] = test system: Cheatgrass; test: as above; details: Bromus tectorum, pre-emergence, 504 h, 16 lb/acre, about 3 weeks
# Source text: as §1, §2, §3, §4
# [4] = test system: Chickweed; test: as above; details: pre-emergence, 504 h, 16 lb/acre, about 3 weeks
# Source text: as §1, §2, §3, §4
# [5] = test system: Corn; test: as above; details: Zea mays, pre-emergence, 504 h, 16 lb/acre, about 3 weeks
# Source text: as §1, §2, §3, §4
# [6] = test system: Crabgrass; test: as above; details: Digitaria sanguinalis, pre-emergence, 504 h, 16 lb/acre, about 3 weeks
# Source text: as §1, §2, §3, §4
# [7] = test system: Cucumber; test: as above; details: Cucumis sativus, pre-emergence, 504 h, 16 lb/acre, about 3 weeks
# Source text: as §1, §2, §3, §4
# [8] = test system: Curled Dock; test: as above; details: pre-emergence, 504 h, 16 lb/acre, about 3 weeks
# Source text: as §1, §2, §3, §4
# [9] = test system: Foxtail; test: as above; details: Setaria, pre-emergence, 504 h, 16 lb/acre, about 3 weeks
# Source text: as §1, §2, §3, §4
# [10] = test system: Johnsongrass; test: as above; details: Sorghum halepense, pre-emergence, 504 h, 16 lb/acre, about 3 weeks
# Source text: as §1, §2, §3, §4
# [11] = test system: Lambsquarters; test: as above; details: Chenopodium album, pre-emergence, 504 h, 16 lb/acre, about 3 weeks
# Source text: as §1, §2, §3, §4
# [12] = test system: Nutgrass; test: as above; details: pre-emergence, 504 h, 16 lb/acre, about 3 weeks
# Source text: as §1, §2, §3, §4
# [13] = test system: Pigweed; test: as above; details: Amaranthus retroflexus, pre-emergence, 504 h, 16 lb/acre, about 3 weeks
# Source text: as §1, §2, §3, §4
# [14] = test system: Snapbeans; test: as above; details: pre-emergence, 504 h, 16 lb/acre, about 3 weeks
# Source text: as §1, §2, §3, §4
# [15] = test system: Velvetleaf; test: as above; details: Abutilon theophrasti, pre-emergence, 504 h, 16 lb/acre, about 3 weeks
# Source text: as §1, §2, §3, §4
# [16] = test system: Wild Oats; test: as above; details: Avena fatua, pre-emergence, 504 h, 16 lb/acre, about 3 weeks
# Source text: as §1, §2, §3, §4
# [17] = test system: Yellow Rocket; test: as above; details: pre-emergence, 504 h, 16 lb/acre, about 3 weeks
# Source text: as §1, §2, §3, §4
# [18] = test system: Alfalfa; test: Postemergence herbicidal activity, % control of plant growth; details: Medicago sativa, post-emergence, 264 h, 8 lb/acre, about 11 days
# Source text: (§5) By the term "postemergence" is meant that the compound is applied to the plant sought to be controlled after it has emerged from the soil surface. This term is also used to describe the application of herbicidally active compounds to soil surface in and around growing plants sought to be controlled for purposes of effecting root absorption by the undesirable plant species.
# (§6) In the postemergence test the soil and developing plants were sprayed approximately 2 weeks after the seeds were sown. The compound was applied at the rate of 8 pounds per acre from about a 2 percent by weight solution of the test compound in acetone and/or alcohol. The postemergence herbicidal activity was measured in the same way as the preemergence activity; i.e. visual observation approximately 11 days after spraying, and expressed as the percent control of plant growth.
# (§7) **Postemergence test: compound applied at rate of 8 lb/acre
# [19] = test system: Barnyard Grass; test: as above; details: Echinochloa crus-galli, post-emergence, 264 h, 8 lb/acre, about 11 days
# Source text: as §5, §6, §7
# [20] = test system: Cheatgrass; test: as above; details: Bromus tectorum, post-emergence, 264 h, 8 lb/acre, about 11 days
# Source text: as §5, §6, §7
# [21] = test system: Chickweed; test: as above; details: post-emergence, 264 h, 8 lb/acre, about 11 days
# Source text: as §5, §6, §7
# [22] = test system: Corn; test: as above; details: Zea mays, post-emergence, 264 h, 8 lb/acre, about 11 days
# Source text: as §5, §6, §7
# [23] = test system: Crabgrass; test: as above; details: Digitaria sanguinalis, post-emergence, 264 h, 8 lb/acre, about 11 days
# Source text: as §5, §6, §7
# [24] = test system: Cucumber; test: as above; details: Cucumis sativus, post-emergence, 264 h, 8 lb/acre, about 11 days
# Source text: as §5, §6, §7
# [25] = test system: Curled Dock; test: as above; details: post-emergence, 264 h, 8 lb/acre, about 11 days
# Source text: as §5, §6, §7
# [26] = test system: Foxtail; test: as above; details: Setaria, post-emergence, 264 h, 8 lb/acre, about 11 days
# Source text: as §5, §6, §7
# [27] = test system: Johnsongrass; test: as above; details: Sorghum halepense, post-emergence, 264 h, 8 lb/acre, about 11 days
# Source text: as §5, §6, §7
# [28] = test system: Lambsquarters; test: as above; details: Chenopodium album, post-emergence, 264 h, 8 lb/acre, about 11 days
# Source text: as §5, §6, §7
# [29] = test system: Nutgrass; test: as above; details: post-emergence, 264 h, 8 lb/acre, about 11 days
# Source text: as §5, §6, §7
# [30] = test system: Pigweed; test: as above; details: Amaranthus retroflexus, post-emergence, 264 h, 8 lb/acre, about 11 days
# Source text: as §5, §6, §7
# [31] = test system: Snapbeans; test: as above; details: post-emergence, 264 h, 8 lb/acre, about 11 days
# Source text: as §5, §6, §7
# [32] = test system: Velvetleaf; test: as above; details: Abutilon theophrasti, post-emergence, 264 h, 8 lb/acre, about 11 days
# Source text: as §5, §6, §7
# [33] = test system: Wild Oats; test: as above; details: Avena fatua, post-emergence, 264 h, 8 lb/acre, about 11 days
# Source text: as §5, §6, §7
# [34] = test system: Yellow Rocket; test: as above; details: post-emergence, 264 h, 8 lb/acre, about 11 days
# Source text: as §5, §6, §7
Compound,pest or weed control at 17933.6 g/ha [1] [%],pest or weed control at 17933.6 g/ha [2] [%],pest or weed control at 17933.6 g/ha [3] [%],pest or weed control at 17933.6 g/ha [4] [%],plant injury at 17933.6 g/ha [5] [%],pest or weed control at 17933.6 g/ha [6] [%],pest or weed control at 17933.6 g/ha [7] [%],pest or weed control at 17933.6 g/ha [8] [%],pest or weed control at 17933.6 g/ha [9] [%],pest or weed control at 17933.6 g/ha [10] [%],pest or weed control at 17933.6 g/ha [11] [%],pest or weed control at 17933.6 g/ha [12] [%],pest or weed control at 17933.6 g/ha [13] [%],pest or weed control at 17933.6 g/ha [14] [%],pest or weed control at 17933.6 g/ha [15] [%],pest or weed control at 17933.6 g/ha [16] [%],pest or weed control at 17933.6 g/ha [17] [%],pest or weed control at 8966.8 g/ha [18] [%],pest or weed control at 8966.8 g/ha [19] [%],pest or weed control at 8966.8 g/ha [20] [%],also measured
"CCCn1c(=O)[nH]c2cccnc2c1=O [3-propyl-pyrido[3,2-d]pyrimidine-2,4(1H,3H)-dione]",100,100,100,100,100,100,100,100,100,100,100,20,100,100,100,100,100,100,100,100,pest or weed control at 8966.8 g/ha [21]: 100%; plant injury at 8966.8 g/ha [22]: 60%; pest or weed control at 8966.8 g/ha [23]: 100%; pest or weed control at 8966.8 g/ha [24]: 100%; pest or weed control at 8966.8 g/ha [25]: 100%; pest or weed control at 8966.8 g/ha [26]: 100%; pest or weed control at 8966.8 g/ha [27]: 100%; pest or weed control at 8966.8 g/ha [28]: 100%; pest or weed control at 8966.8 g/ha [29]: 70%; pest or weed control at 8966.8 g/ha [30]: 100%; pest or weed control at 8966.8 g/ha [31]: 100%; pest or weed control at 8966.8 g/ha [32]: 100%; pest or weed control at 8966.8 g/ha [33]: 90%; pest or weed control at 8966.8 g/ha [34]: 100%
"CCCCn1c(=O)[nH]c2nccnc2c1=O [Lumazine, 3-butyl]",0,0,0,90,0,0,0,0,0,0,0,0,0,20,0,0,0,0,0,0,pest or weed control at 8966.8 g/ha [21]: 0%; plant injury at 8966.8 g/ha [22]: 0%; pest or weed control at 8966.8 g/ha [23]: 0%; pest or weed control at 8966.8 g/ha [24]: 0%; pest or weed control at 8966.8 g/ha [25]: 0%; pest or weed control at 8966.8 g/ha [26]: 0%; pest or weed control at 8966.8 g/ha [27]: 0%; pest or weed control at 8966.8 g/ha [28]: 70%; pest or weed control at 8966.8 g/ha [29]: 0%; pest or weed control at 8966.8 g/ha [30]: 0%; pest or weed control at 8966.8 g/ha [31]: 0%; pest or weed control at 8966.8 g/ha [32]: 0%; pest or weed control at 8966.8 g/ha [33]: 0%; pest or weed control at 8966.8 g/ha [34]: 70%
